From patent US12215081B2, “Pharmaceutical intermediate” (ZAKLADY FARM[…] S.A., priority 2019, dated 2025)

Assay: Stability of 4-(4-fluorobenzylamino)-1-methylpiperidine (oil) and its trihydrate stored in a sealed container, purity and impurities over time
Format: physicochemical
Conditions: for decrease in purity: crude oil, sealed container
Method: The stability of the crude 4-(4-fluorobenzylamino)-1-methylpiperidine oil obtained by the process described in Example 1 was also assessed.
The crude 4-(4-fluorobenzylamino)-1-methylpiperidine oil decreased in purity by 0.5% after 1 month and 0.7% after 2.5 months.

[1] = Batch 3, sealed container, 0 months
[2] = Batch 3, sealed container, 1 month
[3] = Batch 4, sealed container, 0 months
[4] = Batch 4, sealed container, 2.5 months

Row | SMILES | stability on storage (decomposition) (stored under the same conditions as the amine oil (sealed container)) | Amine purity [1] | impurity I (% impurity) [1] | impurity II (% impurity) [1] | impurity III (% impurity) [1] | Amine purity [2] | impurity I (% impurity) [2] | impurity II (% impurity) [2] | impurity III (% impurity) [2] | Amine purity [3] | impurity I (% impurity) [3] | impurity II (% impurity) [3] | impurity III (% impurity) [3] | Amine purity [4] | impurity I (% impurity) [4] | impurity II (% impurity) [4] | impurity III (% impurity) [4] | decrease in purity (after 1 month) [%] | decrease in purity (after 2.5 months) [%]
1 | CN1CCC(NCc2ccc(F)cc2)CC1 [4-(4-fluorobenzylamino)-1-methylpiperidine trihydrate] | stable, and no decomposition was observed | – | – | – | – | – | – | – | – | – | – | – | – | – | – | – | – | – | –
2 | CN1CCC(NCc2ccc(F)cc2)CC1 [4-(4-fluorobenzylamino)-1-methylpiperidine] | – | Amine - 98.17% pure | I/(0.21) % | II/(0.12) % | III/(0.27) % | Amine - 97.66% pure | I/(0.26) % | II/(0.21) % | III/(0.59) % | Amine - 97.82% pure | I/(0.23) % | II/(0.12) % | III/(0.68) % | Amine - 97.09% pure | I/(0.18) % | II/(0.14) % | III/(1.15) % | 0.5 | 0.7
